The target in the experiment is T1, BCL6 (Homo sapiens, UniProt P41182).
T1 construct: endogenous in cells; host or cells: T47D breast cancer epithelial cells
The experiment can be described thus: Immunofluorescence protocol for high content imaging of BCL6 (degradation) in T47D cells, 3 days compound treatment. The following applies: T47D cells, 3 days compound treatment; for DC50: read-out: Mean DC50 (nM)* category; for Dmax: read-out: Mean Dmax (%)** category. In kind it is cell-based. The gist of the method:
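Cells are seeded to reach ~70-90% confluence at endpoint, then dosed next day with compound at a final top concentration of 0.1 or 1 μM (11 points, 3-fold). After 3 days, BCL6 is detected by immunofluorescence and quantified by high-content imaging.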

Structures are written as SMILES.

`CNC(=O)COc1cc2cc(Nc3nc(N4CCCC4)ncc3Cl)ccc2n(CCOc2ccc3c(c2)C(=O)N(C2CCC(=O)NC2=O)C3=O)c1=O` (centres unmarked) [Compound 32, 2-[(6-{[5-chloro-2-(pyrrolidin-1-yl)pyrimidin-4-yl]amino}-1-(2-{[2-(2,6-dioxopiperidin-3-yl)-1,3-dioxo-2,3-dihydro-1H-isoindol-5-yl]oxy}ethyl)-2-oxo-1,2-dihydroquinolin-3-yl)oxy]-N-methylacetamide]: the DC50 fell in the range of 10 to 50 nM and the Dmax lay within 50 to 70%.

Consider `CNC(=O)COc1cc2cc(Nc3nc(N4CC(C)OC(C)C4)ncc3Cl)ccc2n(CCOc2ccc3c(c2)C(=O)N(C2CCC(=O)NC2=O)C3=O)c1=O` (centres unmarked) [Compound 33, 2-[(6-{[5-chloro-2-(2,6-dimethylmorpholin-4-yl)pyrimidin-4-yl]amino}-1-(2-{[2-(2,6-dioxopiperidin-3-yl)-1,3-dioxo-2,3-dihydro-1H-isoindol-5-yl]oxy}ethyl)-2-oxo-1,2-dihydroquinolin-3-yl)oxy]-N-methylacetamide], for which the half-maximal degradation concentration (DC50) was in the range of 50 to 100 nM and the Dmax was less than 50%.

`CNC(=O)COc1cc2cc(Nc3nc(N4CCC5(CC4)CC(C(C)(C)N4CCN(c6cccc7c6CN(C6CCC(=O)NC6=O)C7=O)CC4)C5)ncc3Cl)ccc2n(C(C)C)c1=O` (centres unmarked) [Compound 34, 2-{[6-({5-chloro-2-[2-(2-{4-[2-(2,6-dioxopiperidin-3-yl)-1-oxo-2,3-dihydro-1H-isoindol-4-yl]piperazin-1-yl}propan-2-yl)-7-azaspiro[3.5]nonan-7-yl]pyrimidin-4-yl}amino)-2-oxo-1-(propan-2-yl)-1,2-dihydroquinolin-3-yl]oxy}-N-methylacetamide]: the 50% degradation concentration (DC50) was less than 10 nM and the maximal degradation (Dmax) is 50 to 70%.

Turning to `CNC(=O)COc1cc2cc(Nc3nc(N4CCN(CC5CCN(c6c(F)ccc7c6C(=O)N(C6CCC(=O)NC6=O)C7=O)CC5)CC4)ncc3Cl)ccc2n(C)c1=O` (centres unmarked) [Compound 35, 2-{[6-({5-chloro-2-[4-({1-[2-(2,6-dioxopiperidin-3-yl)-5-fluoro-1,3-dioxo-2,3-dihydro-1H-isoindol-4-yl]piperidin-4-yl}methyl)piperazin-1-yl]pyrimidin-4-yl}amino)-1-methyl-2-oxo-1,2-dihydroquinolin-3-yl]oxy}-N-methylacetamide], the 50% degradation concentration (DC50) is less than 10 nM and the greatest degradation seen (Dmax) fell in the range of 50 to 70%.

Consider `CNC(=O)COc1cc2cc(Nc3nc(N4CCC5(CC4)CN(C(C)(C)C4CCN(c6cccc7c6CN(C6CCC(=O)NC6=O)C7=O)CC4)C5)ncc3Cl)ccc2n(C(C)C)c1=O` (centres unmarked) [Compound 36, 2-{[6-({5-chloro-2-[2-(2-{1-[2-(2,6-dioxopiperidin-3-yl)-1-oxo-2,3-dihydro-1H-isoindol-4-yl]piperidin-4-yl}propan-2-yl)-2,7-diazaspiro [3.5]nonan-7-yl]pyrimidin-4-yl}amino)-2-oxo-1-(propan-2-yl)-1,2-dihydroquinolin-3-yl]oxy}-N-methylacetamide], for which the half-maximal degradation concentration (DC50) is less than 10 nM and the greatest degradation seen (Dmax) is no less than 70%.

`CNC(=O)COc1cc2cc(Nc3nc(N4CCC(CN5CCC6(CC5)CN(c5ccc7c(c5)C(=O)N(C5CCC(=O)NC5=O)C7=O)C6)CC4)ncc3Cl)ccc2n(CCOC)c1=O` (centres unmarked) [Compound 37, 2-{[6-({5-chloro-2-[4-({2-[2-(2,6-dioxopiperidin-3-yl)-1,3-dioxo-2,3-dihydro-1H-isoindol-5-yl]-2,7-diazaspiro[3.5]nonan-7-yl}methyl)piperidin-1-yl]pyrimidin-4-yl}amino)-1-(2-methoxyethyl)-2-oxo-1,2-dihydroquinolin-3-yl]oxy}-N-methylacetamide]: the DC50 was less than 10 nM and the maximal degradation (Dmax) lay within 50 to 70%.

For the compound `CNC(=O)COc1cc2cc(Nc3nc(N4CCC(CN5CCC6(CN(c7ccc8c(c7)C(=O)N(C7CCC(=O)NC7=O)C8=O)C6)C(F)(F)C5)CC4)ncc3Cl)ccc2n(C(C)C)c1=O` (centres unmarked) [Compound 38, 2-{[6-({5-chloro-2-[4-({2-[2-(2,6-dioxopiperidin-3-yl)-1,3-dioxo-2,3-dihydro-1H-isoindol-5-yl]-5,5-difluoro-2,7-diazaspiro[3.5]nonan-7-yl}methyl)piperidin-1-yl]pyrimidin-4-yl}amino)-2-oxo-1-(propan-2-yl)-1,2-dihydroquinolin-3-yl]oxy}-N-methylacetamide], the DC50 was less than 10 nM and the greatest degradation seen (Dmax) was 50 to 70%.

With `CNC(=O)COc1cc2cc(Nc3nc(N4CCC(CN5CCC6(CC(=O)N(c7ccc8c(c7)CN(C7CCC(=O)NC7=O)C8=O)C6)C5)CC4)ncc3Cl)ccc2n(C(C)C)c1=O` (centres unmarked) [Compound 39, 2-{[6-({5-chloro-2-[4-({7-[2-(2,6-dioxopiperidin-3-yl)-1-oxo-2,3-dihydro-1H-isoindol-5-yl]-8-oxo-2,7-diazaspiro[4.4]nonan-2-yl}methyl)piperidin-1-yl]pyrimidin-4-yl}amino)-2-oxo-1-(propan-2-yl)-1,2-dihydroquinolin-3-yl]oxy}-N-methylacetamide], the DC50 is less than 10 nM and the Dmax is 50 to 70%.

With `CNC(=O)COc1cc2cc(Nc3nc(N4CCN(C[C@H]5C[C@@H](N6CCC(c7ccc8c(c7)C(=O)N(C7CCC(=O)NC7=O)C8=O)CC6)C5)CC4)ncc3Cl)ccc2n(C(C)C)c1=O` (some centres unmarked) [Compound 40, 2-[(6-{[5-chloro-2-(4-{[(1s,3s)-3-{4-[2-(2,6-dioxopiperidin-3-yl)-1,3-dioxo-2,3-dihydro-1H-isoindol-5-yl]piperidin-1-yl}cyclobutyl]methyl}piperazin-1-yl)pyrimidin-4-yl]amino}-2-oxo-1-(propan-2-yl)-1,2-dihydroquinolin-3-yl)oxy]-N-methylacetamide], the DC50 was 10 to 50 nM and the greatest degradation seen (Dmax) was in the range of 50 to 70%.

`CNC(=O)COc1cc2cc(Nc3nc(N4CCN(C[C@H]5C[C@H](N6CCC(c7ccc8c(c7)C(=O)N(C7CCC(=O)NC7=O)C8=O)CC6)C5)CC4)ncc3Cl)ccc2n(C(C)C)c1=O` (some centres unmarked) [Compound 41, 2-[(6-{[5-chloro-2-(4-{[(1r,3r)-3-{4-[2-(2,6-dioxopiperidin-3-yl)-1,3-dioxo-2,3-dihydro-1H-isoindol-5-yl]piperidin-1-yl}cyclobutyl]methyl}piperazin-1-yl)pyrimidin-4-yl]amino}-2-oxo-1-(propan-2-yl)-1,2-dihydroquinolin-3-yl)oxy]-N-methylacetamide]: the DC50 is 50 to 100 nM and the maximal degradation (Dmax) is no less than 70%.

On to `CNC(=O)COc1cc2cc(Nc3nc(N4CCC(OC5CCC(N6CCC(c7ccc8c(c7)C(=O)N(C7CCC(=O)NC7=O)C8=O)CC6)C5)CC4)ncc3Cl)ccc2n(C(C)C)c1=O` (centres unmarked) [Compound 42, 2-({6-[(5-chloro-2-{4-[(3-{4-[2-(2,6-dioxopiperidin-3-yl)-1,3-dioxo-2,3-dihydro-1H-isoindol-5-yl]piperidin-1-yl}cyclopentyl)oxy]piperidin-1-yl}pyrimidin-4-yl)amino]-2-oxo-1-(propan-2-yl)-1,2-dihydroquinolin-3-yl}oxy)-N-methylacetamide], for which the 50% degradation concentration (DC50) is 10 to 50 nM and the Dmax lay within 50 to 70%.

For `CNC(=O)COc1cc2cc(Nc3nc(N4CCC(F)(CN5CCC6(CC5)CN(c5ccc7c(c5)C(=O)N(C5CCC(=O)NC5=O)C7=O)C6)CC4)ncc3Cl)ccc2n(C(C)C)c1=O` (centres unmarked) [Compound 43, 2-{[6-({5-chloro-2-[4-({2-[2-(2,6-dioxopiperidin-3-yl)-1,3-dioxo-2,3-dihydro-1H-isoindol-5-yl]-2,7-diazaspiro [3.5]nonan-7-yl}methyl)-4-fluoropiperidin-1-yl]pyrimidin-4-yl}amino)-2-oxo-1-(propan-2-yl)-1,2-dihydroquinolin-3-yl]oxy}-N-methylacetamide], the 50% degradation concentration (DC50) is 10 to 50 nM and the greatest degradation seen (Dmax) lay in the range of 50 to 70%.

With `CNC(=O)COc1cc2cc(Nc3nc(N4CCC(F)(CN5CCC6(CC5)CN(c5cccc7c5C(=O)N(C5CCC(=O)NC5=O)C7=O)C6)CC4)ncc3Cl)ccc2n(C(C)C)c1=O` (centres unmarked) [Compound 44, 2-{[6-({5-chloro-2-[4-({2-[2-(2,6-dioxopiperidin-3-yl)-1,3-dioxo-2,3-dihydro-1H-isoindol-4-yl]-2,7-diazaspiro [3.5]nonan-7-yl}methyl)-4-fluoropiperidin-1-yl]pyrimidin-4-yl}amino)-2-oxo-1-(propan-2-yl)-1,2-dihydroquinolin-3-yl]oxy}-N-methylacetamide], the 50% degradation concentration (DC50) was less than 10 nM and the Dmax is no less than 70%.

As for `CNC(=O)COc1cc2cc(Nc3nc(N4CCC(C(C)(C)N5CCC6(CC5)CN(c5ccc7c(c5)C(=O)N(C5CCC(=O)NC5=O)C7=O)C6)CC4)ncc3Cl)ccc2n(C(C)C)c1=O` (centres unmarked) [Compound 45], the DC50 was less than 10 nM and the greatest degradation seen (Dmax) was in the range of 50 to 70%.

For `CNC(=O)COc1cc2cc(Nc3nc(N4CCC(C(C)(C)N5CCC6(CC5)CN(c5cccc7c5C(=O)N(C5CCC(=O)NC5=O)C7=O)C6)CC4)ncc3Cl)ccc2n(C(C)C)c1=O` (centres unmarked) [Compound 46, 2-{[6-({5-chloro-2-[4-(2-{2-[2-(2,6-dioxopiperidin-3-yl)-1,3-dioxo-2,3-dihydro-1H-isoindol-4-yl]-2,7-diazaspiro [3.5]nonan-7-yl}propan-2-yl)piperidin-1-yl]pyrimidin-4-yl}amino)-2-oxo-1-(propan-2-yl)-1,2-dihydroquinolin-3-yl]oxy}-N-methylacetamide], the DC50 was less than 10 nM and the greatest degradation seen (Dmax) was no less than 70%.

As for `CNC(=O)COc1cc2cc(Nc3nc(N4CCC(C(=O)N5CCC6(CCN(c7ccc8c(c7)CN(C7CCC(=O)NC7=O)C8=O)C6)C5)CC4)ncc3Cl)ccc2n(C(C)C)c1=O` (centres unmarked) [Compound 47, 2-[(6-{[5-chloro-2-(4-{7-[2-(2,6-dioxopiperidin-3-yl)-1-oxo-2,3-dihydro-1H-isoindol-5-yl]-2,7-diazaspiro[4.4]nonane-2-carbonyl}piperidin-1-yl)pyrimidin-4-yl]amino}-2-oxo-1-(propan-2-yl)-1,2-dihydroquinolin-3-yl)oxy]-N-methylacetamide], the DC50 is less than 10 nM and the greatest degradation seen (Dmax) lay within 50 to 70%.

The record behind these values is patent publication US11986532B2 (Arvinas Operations, Inc., priority 2021, dated 2024).
